Experimental findings from patent publication US5262520A, “Peptides and antibodies that inhibit integrin-ligand binding” (The Scripps Research Institute, priority 1990, dated 1993) are described below.

For assay [1], the target named is T1, ^125 I-fibrinogen with immobilized p1 peptide (Homo sapiens, UniProt P08514).
T1 construct: for GPIIb from residue 296; made in house; no expression host
Kind of assay: Inhibition of 125I-fibrinogen binding to immobilized p1 peptide. Particulars: for inhibition of fibrinogen binding to immobilized p1 (in words): text summary of Table 7. The protocol: Polypeptides p1, p1', and controls were immobilized on 96-well Immulon-2 microtiter plates (Dynatech Laboratories, VA). The peptides were added to the plates and maintained at 4 C for 24 hours after which the plates were washed with Hepes-Tyrode's buffer (pH 7.4) containing Tween-20. The plates were post-coated with 3% BSA for 1 hr. at 37° C. and then washed again. ^125 I-fibrinogen (50 μL at 50 nM) was allowed to bind to the peptide-coated wells for 24 hours at 22° C. which were then extensively washed and counted for bound radioactivity.
Cation dependence of binding was established in the presence of EDTA (5 mM). Two gamma-chain peptides of fibrinogen (HHLGGAKQAGDV and KYGGHHLGGAHQAGDV) inhibited the interaction of fibrinogen with immobilized pl. […] These observations are consistent with the hypothesis that RGD gamma-chain peptides interact with the same sites in GPIIb-IIIa.

Another assay concerns the target T2, GPIIb (Homo sapiens, UniProt P08514).
T2 construct: endogenous in cells; host or cells: washed human platelets from fresh blood
Description: Chemical crosslinking of 125I-K16 to GPIIb on platelets. In kind it is binding. The text has this: Platelets were isolated from fresh human blood collected into acid/citrate/dextrose by differential centrifugation followed by gel filtration on Sepharose 2B in divalent ion-free Tyrode's buffer, pH 7.3, containing 0.1% bovine serum albumin. See, Marguerie et al., J. Biol. Chem., 225:154-161 (1980).
Platelet binding of K16 followed the protocols previously described for measuring platelet interactions with adhesive proteins and with this and other peptides. See, Ginsberg et al., J. Biol. Chem., 260:3931-3936 (1985); Lam et al., Fed. Proc. Fed. Am. Soc. Exp. Biol., 44:1126 (1985); and Marguerie et al., supra. Briefly, platelets were suspended at 4×10^8 /ml in divalent ion-free Tyrode's albumin buffer. Unless otherwise specified, Ca^2+ was added to a final concentration of 1 mM. The platelet stimulus used was 0.5 unit/ml alpha-thrombin. In assays in which fibrinogen and thrombin were present, 30 nM D-phenylalanyl-L-prolyl-arginine ketone (Calbiochem, La Jolla, Ca.) was added to the platelet suspension 5 minutes after addition of thrombin and 5 minutes before addition of fibrinogen. The radiolabeled peptide was then added to […] stimulated or nonstimulated platelets at a concentration of 30 μM, and binding proceeded for 45 min at 22° C. The selected cross-linking agent was then added. The cross-linking agent used in this study, bis(sulfosuccinimidyl) suberate (BS^3), purchased from Pierce Chemical Co. was dissolved in PBS immediately prior to use and admixed with the platelets to a final concentration of 0.2 mM. The cross-linking reactions were terminated after 10 min at 22° C. by addition of 10 mM Tris, pH 7.0.
The cell-bound ligand was recovered by centrifugation through 20% sucrose, and the cells were extracted in PBS containing 1% Nonidet P40 and 10 mM N-ethylmaleimide (Sigma). Extrated proteins were precipitated with 10% trichloroacetic acid, and the pellet obtained after centriguation was washed three times with cold 85% ethanol. The cross-linked samples were analyzed by electrophoresis (SDS-PAGE) on polyacrylamide vertical slab gels in the buffer system of Laemmli, Nature, 227 […] (1970). For disulfide bond reduction, the samples were treated with 5% 2-mercaptoethanol. Gels were dried and autoradiograms were developed with Kodak X-Omat AR films. Molecular weights were estimated on the basis of electrophoretic mobility relative to standards obtained from Diversified Biotech (MA).
Cross-linked samples were immunoprecipitated using a monoclonal antibody designated PMI-1, which recognizes the heavy chain of GPIIb. Loftus et al., Proc. Natl. Acad. Sci. USA. 84:7114 (1987). […]

Setting [2] is: GPIIb:K16 complex, gel under reducing conditions, excised and counted.

Where no end group is shown, it is not given here.

In general, inhibition refers to the share of the control response that was lost under treatment.

Regarding YVTAGRGDSPASSK [YVTAGRGDSPASSK], in assay [1] (inhibitor 200 μM), at 200 µM the inhibition was 61 ± 16%.

Take Albumin: in assay [1] (inhibitor 2 μM), the “% Inhibition of ^125 I-fibrinogen binding to p1” value (from here on “% Inhibition”) is 12 ± 4%. Besides, in assay [1], the “inhibition of fibrinogen binding to immobilized p1 (in words)” value is on record as “minimal inhibition”.

For the compound Fibrinogen, in assay [1] (inhibitor 2 μM), the “% Inhibition” value turned out to be 82 ± 1.2%.

For GRGESP [GRGESP], the inhibition at 200 µM in assay [1] (inhibitor 200 μM) was 16 ± 7%.

HHLGGAKQAGDV [HHLGGAKQAGDV] had an inhibition at 200 µM in assay [1] (inhibitor 200 μM) of 57 ± 11%.

As to “KYGGHHLGGAKQAGDV [K16, peptide derived from fibrinogen gamma chain]”, the “% Inhibition” value in assay [1] (inhibitor 200 μM) is on record as 54 ± 12%. Further, in assay [1], the “inhibition of fibrinogen binding to immobilized p1 (in words)” value is listed as “inhibited”. In the assay with GPIIb (50-fold excess of nonlabeled K16, thrombin-stimulated platelets, FIG. 2A), the “crosslinking of the radiolabeled peptide to the cells” value is “abolished the crosslinking”. Further, in the assay with GPIIb (setting [2]), the “radioactivity in the position of light chain of GPIIb” value is reported as under 2% and the “radioactivity in the position of the heavy chain of GPIIb” value is 98%. The “increase of K16 crosslinking to GPIIb” value with GPIIb (thrombin stimulation relative to nonactivated platelets, 4 experiments) is reported as 12 fold.

As for `O=C(O)CN(CCN(CC(=O)O)CC(=O)O)CC(=O)O` [EDTA], in assay [1] (inhibitor 5000 μM), the “% Inhibition” value is 90 ± 8%.

`N=C(N)NCCC[C@H](N)C(=O)NCC(=O)N[C@@H](CC(=O)O)C(=O)N[C@@H](CO)C(=O)O` [RGDS] registered an inhibition at 200 µM in assay [1] (inhibitor 200 μM) of 52 ± 15%.
